In ChEMBL document CHEMBL4725454, “Degradation of LRRK2 in the Treatment of Parkinson's Disease” (ACS Med Chem Lett, 2020):

Key:
[1] = target: Protein cereblon/Leucine-rich repeat serine/threonine-protein kinase 2 (Mus musculus, UniProt Q5S006+Q8C7D2); test: Protac activity at CRBN/LRRK2 in mouse MEF cells assessed as induction of LRRK2 degradation by measuring reduction in LRRK2 phosphorylation at S935 residue by Invitrogen Adapta assay; assay type: cell-based
[2] = target: Protein cereblon/Leucine-rich repeat serine/threonine-protein kinase 2 (Mus musculus, UniProt Q5S006+Q8C7D2, G2019S); test: Protac activity at CRBN/LRRK2 G2019S homozygous knock-in mutant in mouse MEF cells assessed as induction of LRRK2 degradation by measuring reduction in LRRK2 phosphorylation at S935 residue by Invitrogen Adapta assay; assay type: cell-based

Structure (SMILES) | IC50 [1] [nM] | IC50 [2] [nM]
CNc1nc(Nc2ccc(C(=O)N3CCN(C(=O)CCOCCOCCOCCOCCNc4cccc5c4C(=O)N(C4CCC(=O)NC4=O)C5=O)CC3)cc2OC)ncc1C(F)(F)F (stereo unspecified) | 4 | 2
CC1(Oc2ccc3[nH]nc(-c4cc(N5CCN(C(=O)CCOCCOCCOCCOCCNc6cccc7c6C(=O)N(C6CCC(=O)NC6=O)C7)CC5)ncn4)c3c2)CC1 (stereo unspecified) | 3.14 | 3.16
CC1(Oc2ccc3[nH]nc(-c4cc(N5CCN(C(=O)CCOCCOCCNc6cccc7c6C(=O)N(C6CCC(=O)NC6=O)C7=O)CC5)ncn4)c3c2)CC1 (stereo unspecified) | 1.24 | 1.13
CC1(Oc2ccc3[nH]nc(-c4cc(N5CCN(C(=O)CCOCCOCCNc6cccc7c6C(=O)N(C6CCC(=O)NC6=O)C7)CC5)ncn4)c3c2)CC1 (stereo unspecified) | 2.58 | 2.24
CC1(Oc2ccc3[nH]nc(-c4cc(N5CCN(C(=O)CCOCCOCCOCCOCCNc6cccc7c6C(=O)N(C6CCC(=O)NC6=O)C7=O)CC5)ncn4)c3c2)CC1 (stereo unspecified) | 1.46 | 0.98
CNc1nc(Nc2ccc(C(=O)N3CCN(C(=O)CCCCCCCCOc4cccc5c4C(=O)N(C4CCC(=O)NC4=O)C5=O)CC3)cc2OC)ncc1C(F)(F)F (stereo unspecified) | 2 | 1
CC1(Oc2ccc3[nH]nc(-c4cc(N5CCN(C(=O)CCOCCNc6cccc7c6C(=O)N(C6CCC(=O)NC6=O)C7=O)CC5)ncn4)c3c2)CC1 (stereo unspecified) | 1.59 | 1.08
CC1(Oc2ccc3[nH]nc(-c4cc(N5CCN(C(=O)CCOCCNc6cccc7c6C(=O)N(C6CCC(=O)NC6=O)C7)CC5)ncn4)c3c2)CC1 (stereo unspecified) | 2.5 | 1.47
